Test results as given in US20220192955A1, “AZOXYSTROBIN EFFICACY IN SCALP HEALTH” (The Procter & Gamble Company, priority 2020, published 2022).
Marks after values point to notes of the source that are not given here.

Tests used:
human serum albumin = assay: Scalp tape strip barrier integrity: human serum albumin; type: in vivo
Experimental: Subjects are enrolled in a double-blind, randomized study for all test groups and have Baseline and Week 3 measurements of scalp health taken for flaking, itch and scalp health endpoints. Subjects take home a test product(s) and are instructed on use of test products throughout the study. Test products are solubilized in a hydroalcoholic leave-on formulation. […] Azoxystrobin scalp treatment is prepared from a slurry of azoxystrobin in ethanol that is formulated to 0.1% (w/v) in a base chassis of 50% ethanol, 0.35% Ultrez 21 (rheology modifier), 0.05% neutrol TE and water (q.s.). Vehicle scalp treatment is prepared similarly without the addition of azoxystrobin raw material. Subjects apply either azoxystrobin or vehicle scalp treatments daily for 3 weeks. […] All biomarkers are analyzed from D-Squame® scalp tape samples that are collected from the scalp of subjects before and after scalp treatment with either azoxystrobin or vehicle (Baseline, and Week 3 respectively). […] Data analysis is conducted by standard statistical methods and calculations. […] Biochemical markers of skin/scalp barrier integrity are analyzed to evaluate improvements on barrier health. […] Human skin analytes (keratin 1, keratin 10, human serum albumin) are simultaneously quantified using a 3-plea Human Skin Panel LINCOplex Kit (Millipore Corp.). Soluble protein is measured using the BCA™ Protein Assay Kit. […]

S100A12 = assay: Scalp tape strip S100A12 protein; type: in vivo, human
Experimental: Subjects are enrolled in a double-blind, randomized study for all test groups and have Baseline and Week 3 measurements of scalp health taken for flaking, itch and scalp health endpoints. Subjects take home a test product(s) and are instructed on use of test products throughout the study. Test products are solubilized in a hydroalcoholic leave-on formulation. Azoxystrobin raw material is sourced from AK Scientific Inc. (Union City, Calif.) as >97% pure. Azoxystrobin scalp treatment is prepared from a slurry of azoxystrobin in ethanol that is formulated to 0.1% (w/v) in a base chassis of 50% ethanol, 0.35% Ultrez 21 (rheology modifier), 0.05% neutrol TE and water (q.s.). […] Biomarkers of scalp health, including biomarkers of inflammation, itch, oxidative stress and barrier integrity are assessed by non-invasive tape strip sampling of the scalp surface to determine therapeutic resolution. All biomarkers are analyzed from D-Squame® scalp tape samples that are collected from the scalp of subjects before and after scalp treatment with either azoxystrobin or vehicle (Baseline, and Week 3 respectively). These are extracted and analyzed according to published methods (International Journal of Dermatology 2011, 50, 102-113, incorporated by reference herein). […] S100A12 protein is analyzed to determine the impact of scalp treatment on active inflammatory disease. […]

Histamine = assay: Scalp tape strip histamine (HPLC/MS/MS); type: in vivo, human
Experimental: Subjects are enrolled in a double-blind, randomized study for all test groups and have Baseline and Week 3 measurements of scalp health taken for flaking, itch and scalp health endpoints. Subjects take home a test product(s) and are instructed on use of test products throughout the study. Test products are solubilized in a hydroalcoholic leave-on formulation. Azoxystrobin raw material is sourced from AK Scientific Inc. (Union City, Calif.) as >97% pure. Azoxystrobin scalp treatment is prepared from a slurry of azoxystrobin in ethanol that is formulated to 0.1% (w/v) in a base chassis of 50% ethanol, 0.35% Ultrez 21 (rheology modifier), 0.05% neutrol TE and water (q.s.). […]
Biomarkers of scalp health, including biomarkers of inflammation, itch, oxidative stress and barrier integrity are assessed by non-invasive tape strip sampling of the scalp surface to determine therapeutic resolution. All biomarkers are analyzed from D-Squame® scalp tape samples that are collected from the scalp of subjects before and after scalp treatment with either azoxystrobin or vehicle (Baseline, and Week 3 respectively). These are extracted and analyzed according to published methods (International Journal of Dermatology 2011, 50, 102-113, incorporated by reference herein). […]
Histamine is analyzed by gradient reversed-phase HPLC/MS/MS to evaluate scalp itch. […]

human scalp (dandruff) = assay: Self-assessment questionnaire for itch perception; type: in vivo
Experimental: Subjects are enrolled in a double-blind, randomized study for all test groups and have Baseline and Week 3 measurements of scalp health taken for flaking, itch and scalp health endpoints. Subjects take home a test product(s) and are instructed on use of test products throughout the study. Test products are solubilized in a hydroalcoholic leave-on formulation. Azoxystrobin raw material is sourced from AK Scientific Inc. (Union City, Calif.) as >97% pure. Azoxystrobin scalp treatment is prepared from a slurry of azoxystrobin in ethanol that is formulated to 0.1% (w/v) in a base chassis of 50% ethanol, 0.35% Ultrez 21 (rheology modifier), 0.05% neutrol TE and water (q.s.). Vehicle scalp treatment is prepared similarly without the addition of azoxystrobin raw material. Subjects apply either azoxystrobin or vehicle scalp treatments daily for 3 weeks. Self-assessment questionnaires for itch perception are administered to each subject at Baseline and Week 3. Itch perception is quantified by each subject as severity of symptoms over the past 24 hours on a 7 point scale: 0=none, 1=slight, 2=slight to moderate, 3=moderate, 4=moderate to severe; 5=severe; 6=very severe.

[1] = cited from earlier work
[2] = 0.1% leave-on daily, Week 3, scalp tape strips

## CO/C=C(/C(=O)OC)c1ccccc1Oc1cc(Oc2ccccc2C#N)ncn1 [Azoxystrobin]
Human serum albumin; [2]
  Human Serum Albumin % Change from Baseline: −54.1* %
Human serum albumin; 3 weeks of treatment
  reduction in human serum albumin (HSA) changed from a baseline: 54%
S100A12; [2]
  S100A12 Results % Change from Baseline: −71.2* %
S100A12; compared to a placebo control
  reduction of S100A12 levels: 71%
Histamine; [2]
  Histamine Results % Change from Baseline: 23.8%
Histamine; 3 weeks of treatment
  histamine reduction compared to placebo control or baseline values (in words): does not significantly reduce histamine
Human scalp (dandruff); 7 point scale 0-6, Common Baseline Severity = 3.1, 0.1% leave-on daily
  Mean Itch Severity at Week 3: 1.5*
Human scalp (dandruff); compared to a placebo control
  reduction in itch perception: 48%
[1]
  solubility in water: low solubility in water
